The experiment concerns Escherichia Coli (strain O157). Nature of the experiment: Sepsis model induced in mice by Escherichia Coli (strain O157). In kind it is in vivo. To be noted: BALB/c mice, E. coli O157 2.5×10^8 cells i.p.; single intravenous injection 25 mg/kg (antibiotic base) 4 h post infection; n=10. Here is the method:
Antibacterial efficacy of antibiotics in hybrid polymer-lipid nanoparticles was evaluated “in vivo” in a sepsis model, induced in mice (BALB/C line) by Escherichia Coli (strain O157). E. Coli O157 strain was chosen as a model infection as one of the most common pathogens that cause nosocomial infections.
Female BALB/c mice 6-8 weeks old were infected intraperitoneally with E. coli (strain O157) at a dose of 2.5×10^8 cells off E. coli per mouse.
The infected animals were randomized in groups (n=10) and received one of the following formulations: […]
Streptomycin formulations: 1) Saline; 2) Streptomycin solution in saline, 5 mg/ml 3) Streptomycin in hybrid polymer-lipid nanoparticles (Example 30 in Table 1), 5 mg/ml.
Gentamycin formulations: 1) Saline 2) Gentamycin solution in saline, 2.5 mg/ml; 3) Gentamycin in hybrid polymer-lipid nanoparticles (Example 24 in Table 1), 2.5 mg/ml.
The formulations were injected intraperitoneally (Streptomycin) or intravenously (Gentamycin) in the doses of 1×25 mg/kg (calculated by antibiotic base) 4 h post infection.

As to “Gentamycin [Gentamycin solution in saline]”, the “survival of the animals at Day 10” value was found to be 20%.
